Measurements taken from patent US6716411B2, “Method for finding nucleotide synthesis inhibitors having fewer side effects” (Aventis Pharma Deustschland GmbH, priority 1999, dated 2004).

Tested on: pemphigus vulgaris
Experiment: Observation of leflunomide treatment in humans
Assay type: in vivo
Details: one patient
Procedure: This diarrhea adversely affected the quality of life of the patient. Because of the problems caused by this side effect, an attempt was made, after more than two years' therapy with a constant dose of 20 mg of leflunomide per day, to end the therapy.
This observation was surprising, as the active metabolite of leflunomide, compound 1, has a half-life of approximately 14 days in humans. Furthermore, in this patient the blood levels of the active metabolite of leflunomide were repeatedly determined in the relatively high range between 70 mg/l and 85 mg/l.

Cc1oncc1C(=O)Nc1ccc(C(F)(F)F)cc1 [leflunomide, N-(4-trifluoromethylphenyl)-5-methylisoxazole-4-carboxamide]
side effect of treatment (20 mg of leflunomide per day): permanent diarrhea
symptoms of pemphigus vulgaris under therapy (20 mg of leflunomide per day): completely disappeared
pemphigus vulgaris four days following discontinuation (after more than two years' therapy): occurred again severely
